Results reported in patent US20050137220A1 (Pharmacia Corporation, priority 2003, published 2005).
Counter-ions that a name gives are not always drawn.

Biological target: MK-2 (Homo sapiens, UniProt P49137)
Test: Determination of MK-2 IC50 (phosphorylation of HSP-peptide, anion exchange resin capture assay)
Type: biochemical
Settings: additional values are replicate IC50 experiments; mixture of stereoisomers implied unless otherwise noted; read-out: MK-2 Avg. IC50

MK-2, sequence (P49137 whole entry, species assumed): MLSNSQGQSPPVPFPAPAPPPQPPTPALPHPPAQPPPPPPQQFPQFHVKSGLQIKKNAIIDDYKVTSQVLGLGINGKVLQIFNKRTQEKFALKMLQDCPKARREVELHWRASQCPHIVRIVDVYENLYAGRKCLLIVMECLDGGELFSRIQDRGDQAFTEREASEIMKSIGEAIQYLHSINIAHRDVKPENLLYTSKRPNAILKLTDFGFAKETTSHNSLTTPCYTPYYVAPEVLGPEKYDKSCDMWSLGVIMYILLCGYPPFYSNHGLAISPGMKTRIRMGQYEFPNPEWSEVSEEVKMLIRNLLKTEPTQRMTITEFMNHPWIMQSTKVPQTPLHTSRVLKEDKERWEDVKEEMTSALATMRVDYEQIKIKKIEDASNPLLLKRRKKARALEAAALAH

| IC50 [µM] | SMILES |
| --- | --- |
| 170 | COc1ccc2[nH]c3c(c2c1)CCN(C(C)C)C3C(=O)O (stereo not drawn) [Example 157, sodium 2-isopropyl-6-methoxy-2,3,4,9-tetrahydro-1H-beta-carboline-1-carboxylate] |
| 175 | COc1ccc2[nH]c3c(c2c1)CCN1C(=O)NC(=O)C31 (stereo not drawn) [Example 158, 8-methoxy-5,6,11,11b-tetrahydro-1H-imidazo[1′,5′:1,2]pyrido[3,4-b]indole-1,3(2H)-dione] |
| 182 | COC(=O)c1cccc(COc2ccc3[nH]c4c(c3c2)CCNC4C(=O)O)c1 (stereo not drawn) [Example 159, 6-{[3-(methoxycarbonyl)benzyl]oxy}-2,3,4,9-tetrahydro-1H-beta-carboline-1-carboxylic acid hydrochloride] |
| > 200 | COc1ccc2[nH]c3c(c2c1)CCNC3C(=O)NN (stereo not drawn) [Example 161, 6-methoxy-2,3,4,9-tetrahydro-1H-beta-carboline-1-carbohydrazide] |
| > 200 | COC(=O)C12CCC(=O)N1CCc1c2[nH]c2ccc(OC)cc12 (stereo not drawn) [Example 162, methyl 8-methoxy-3-oxo-2,3,6,11-tetrahydro-1H-indolizino[8,7-b]indole-11b(5H)-carboxylate] |
| > 200 | COc1ccc2[nH]c3c(c2c1)CCN1C(=O)CCC31C(=O)O (stereo not drawn) [Example 163, 8-methoxy-3-oxo-2,3,6,11-tetrahydro-1H-indolizino[8,7-b]indole-11b(5H)-carboxylic acid] |
| > 200 | COC(=O)C1(CCl)NCCc2c1[nH]c1ccccc21 (stereo not drawn) [Example 164, methyl 1-(chloromethyl)-2,3,4,9-tetrahydro-1H-beta-carboline-1-carboxylate] |
| > 200 | COc1ccc2[nH]c3c(c2c1)CCNC3CC(=O)O (stereo not drawn) [Example 165, (6-methoxy-2,3,4,9-tetrahydro-1H-beta-carbolin-1-yl)acetic acid hydrochloride] |
| > 200 | COc1ccc2[nH]c3c(c2c1)CCNC3Cc1nnn[nH]1 (stereo not drawn) [Example 166, 6-methoxy-1-(1H-tetraazol-5-ylmethyl)-2,3,49-tetrahydro-1H-beta-carboline hydrochloride hydrate] |
| > 200 | COC(=O)CC1NCCc2c1[nH]c1ccc(OC)cc21 (stereo not drawn) [Example 167, methyl(6-methoxy-2,3,4,9-tetrahydro-1H-beta-carbolin-1-yl)acetate] |
| > 200 | COC(=O)C1c2c(c3cc(OC)ccc3n2CO)CCN1C (stereo not drawn) [Example 169, methyl 9-(hydroxymethyl)-6-methoxy-2-methyl-2,3,4,9-tetrahydro-1H-beta-carboline-1-carboxylate] |
| > 200 | COC(=O)C1(Cc2ccc(Cl)cc2)c2[nH]c3ccc(O)cc3c2CCN1C (stereo not drawn) [Example 173, methyl 1-[4-chlorobenzyl)-6-hydroxy-2-methyl-2,3,4,9-tetrahydro-1H-beta-carboline-1-carboxylate] |
| > 200 | CCOC(=O)C1Cc2c([nH]c3ccc(OC)cc23)C(C(=O)O)N1 (stereo not drawn) [Example 177, 3-(ethoxycarbonyl)-6-methoxy-2,3,4,9-tetrahydro-1H-beta-carboline-1-carboxylic acid] |
| > 200 | COc1ccc2[nH]c3c(c2c1)CCNC3(CCCC(=O)O)C(=O)O (stereo not drawn) [Example 179, 1-(3-carboxypropyl)-6-methoxy-2,3,4,9-tetrahydro-1H-beta-carboline-1-carboxylic acid] |
| > 200 | COc1ccc2[nH]c3c(c2c1)CCN1C3C(=O)NC1(C)C (stereo not drawn) [Example 180, 8-methoxy-3,3-dimethyl-2,3,5,6,11,11b-hexahydro-1H-imidazo[1′,5′:1,2]pyrido[3,4-b]indol-1-one] |
| > 200 | COC(=O)C1c2[nH]c3ccc(OC)cc3c2CCN1CCCO[Si](C)(C)C(C)(C)C (stereo not drawn) [Example 181, methyl 2-(3-{[tert-butyl(dimethyl)silyl]oxy}propyl)-6-methoxy-2,3,4,9-tetrahydro-1H-beta-carboline-1-carboxylate] |
| > 200 | COc1ccc2c(c1)c1c(n2C)C(C(=O)O)NCC1 (stereo not drawn) [Example 182, 6-methoxy-9-methyl-2,3,4,9-tetrahydro-1H-beta-carboline-1-carboxylic acid] |
| > 200 | COc1ccc2[nH]c3c(c2c1C)CCNC3C(=O)O (stereo not drawn) [Example 183, 6-methoxy-5-methyl-2,3,4,9-tetrahydro-1H-beta-carboline-1-carboxylic acid hydrochloride] |

| IC50 [µM] | SMILES |
| --- | --- |
| > 200 | COC(=O)C1NC(CO)Cc2c1[nH]c1ccc(OC)cc21 (stereo not drawn) [Example 184, methyl 3-(hydroxymethyl)-6-methoxy-2,3,4,9-tetrahydro-1H-beta-carboline-1-carboxylate] |
| > 200 | COc1ccc2[nH]c3c(c2c1)C(Cc1ccc(OC(F)(F)F)cc1)CNC3C(=O)O (stereo not drawn) [Example 185, 6-methoxy-4-[4-(trifluoromethoxy)benzyl]-2,3,4,9-tetrahydro-1H-beta-carboline-1-carboxylic acid] |
| > 200 | COc1ccc2[nH]c3c(c2c1)C1(CCCCC1)CNC3C(=O)O (stereo not drawn) [Example 186, 2′,3′,4′,9′-tetrahydro-6′-methoxy-spiro[cyclohexane-1,4′-[4H]pyrido[3,4-b]indole]-1-carboxylic acid] |
| > 200 | CCCC1Cc2c([nH]c3ccc(OC)cc23)C(C(=O)O)N1 (stereo not drawn) [Example 190, 6-methoxy-3-propyl-2,3,4,9-tetrahydro-1H-beta-carboline-1-carboxylic acid] |
| > 200 | COc1ccc2[nH]c3c(c2c1)C1CCCCC1NC3C(=O)O (stereo not drawn) [Example 191, 10-methoxy-2,3,4,4a,5,6,7,11c-octahydro-1H-indolo[2,3-c]quinoline-6-carboxylic acid] |
| > 200 | COc1ccc2[nH]c3c(c2c1)CCN1CCNC(=O)C31 (stereo not drawn) [Example 192, 9-methoxy-3,4,6,7,12,12b-hexahydropyrazino[1′,2′:1,2]pyrido[3,4-b]indol-1(2H)-one] |
| > 200 | COc1ccc2[nH]c3c(c2c1)CC(Cc1ccccc1)NC3C(=O)O (stereo not drawn) [Example 193, 3-benzyl-6-methoxy-2,3,4,9-tetrahydro-1H-beta-carboline-1-carboxylic acid] |
| > 200 | O=C(O)C1NCCc2c1[nH]c1c(OCc3ccccc3)cccc21 (stereo not drawn) [Example 194, 8-(benzyloxy)-2,3,4,9-tetrahydro-1H-beta-carboline-1-carboxylic acid] |
| > 200 | O=C(O)C1NCCc2c1[nH]c1ccc(OCc3ccccc3Cl)cc21 (stereo not drawn) [Example 196, 6-[(2-chlorobenzyl)oxy]-2,3,4,9-tetrahydro-1H-beta-carboline-1-carboxylic acid hydrochloride] |
| > 200 | CCC(CC)CN1CCc2c([nH]c3ccc(OC)cc23)C1C(=O)O (stereo not drawn) [Example 197, sodium 2-(2-ethylbutyl)-6-methoxy-2,3,4,9-tetrahydro-1H-beta-carboline-1-carboxylate] |
| > 200 | O=C(O)C1NCCc2c1[nH]c1ccc(OCC3CCCCC3)cc21 (stereo not drawn) [Example 198, 6-(cyclohexylmethoxy)-2,3,4,9-tetrahydro-1H-beta-carboline-1-carboxylic acid] |
| > 200 | COC(=O)C1c2[nH]c3ccc(OC)cc3c2CCN1C(C)C (stereo not drawn) [Example 199, methyl 2-isopropyl-6-methoxy-2,3,4,9-tetrahydro-1H-beta-carboline-1-carboxylate] |
| > 200 | NNC(=O)c1cccc2[nH]c3c(c12)CCNC3C(=O)O (stereo not drawn) [Example 200, 5-(hydrazinocarbonyl)-2,3,4,9-tetrahydro-1H-beta-carboline-1-carboxylic acid trifluoroacetate] |
| > 200 | COc1cc2[nH]c3c(c2cc1OC)CCNC3C(=O)O (stereo not drawn) [Example 201, 6,7-dimethoxy-2,3,4,9-tetrahydro-1H-beta-carboline-1-carboxylic acid trifluoroacetate] |
| > 200 | COc1ccc2c3c([nH]c2c1)C(Cc1ccc(OC)c(OC)c1OC)(C(=O)O)NCC3 (stereo not drawn) [Example 203, 7-methoxy-1-[(2,3,4-trimethoxyphenyl)methyl]-2,3,4,9-tetrahydro-1H-beta-carboline-1-carboxylic acid, acetate (1:1)] |
| > 200 | O=C(O)C1(Cc2ccc3c(c2)OCO3)NCCc2c1[nH]c1ccccc21 (stereo not drawn) [Example 204, 1-[(benzodioxolan-5-yl)methyl]-2,3,4,9-tetrahydro-1H-beta-carboline-1-carboxylic acid] |
| > 200 | COc1ccc2[nH]c3c(c2c1)CC(C(F)(F)F)NC3C(=O)O (stereo not drawn) [Example 205, 6-methoxy-3-(trifluoromethyl)-2,3,4,9-tetrahydro-1H-beta-carboline-1-carboxylic acid] |
| > 200 | COc1ccc2[nH]c3c(c2c1)CCN1CC(C)NC(=O)C31 (stereo not drawn) [Example 206, 9-methoxy-3-methyl-3,4,6,7,12,12b-hexahydropyrazino[1′, 2′:1 , 2]pyrido[3,4-b]indol-1(2H)-one] |

| SMILES | IC50 [µM] |
| --- | --- |
| COC(=O)C1c2[nH]c3ccc(OC)cc3c2CCN1Cc1ccccc1 (stereo not drawn) [Example 168, methyl 2-benzyl-6-methoxy-2,3,4,9-tetrahydro-1H-beta-carboline-1-carboxylate] | > 200 |
| CCOC(=O)C1(C(=O)OCC)NCCc2c1[nH]c1ccc(OC)cc21 [Example 171, diethyl 6-methoxy-2,3,4,9-tetrahydro-1H-beta-carboline-1,1-dicarboxylate] | > 200 |
| COC(=O)C1c2[nH]c3ccc(O)cc3c2CCN1C (stereo not drawn) [Example 174, methyl 6-hydroxy-2-methyl-2,3,4,9-tetrahydro-1H-beta-carboline-1-carboxylate] | > 200 |
| COc1ccc2[nH]c3c(c2c1)CCNC3(CCC(=O)O)C(=O)O (stereo not drawn) [Example 178, 1-(2-carboxyethyl)-6-methoxy-2,3,4,9-tetrahydro-1H-beta-carboline-1-carboxylic acid] | > 200 |
| COc1ccc2[nH]c3c(c2c1)CC(CN(C)C)NC3C(=O)O (stereo not drawn) [Example 187, 3-[(dimethylamino)methyl]-6-methoxy-2,3,4,9-tetrahydro-1H-beta-carboline-1-carboxylic acid trifluoroacetate] | > 200 |
| COC(=O)C1c2[nH]c3ccc(OC)cc3c2CCN1CCNC(=O)OC(C)(C)C (stereo not drawn) [Example 195, methyl 2-{2-[(tert-butoxycarbonyl)amino]ethyl}-6-methoxy-2,3,4,9-tetrahydro-1H-beta-carboline-1-carboxylate] | > 200 |
